Source: patent US20020086893A1, “Medicament” (SmithKline Beecham p.l.c., priority 1990, published 2002)
Structures can show the parent of a compound that is named as a salt.

| melting point | Compound |
| --- | --- |
| 254 to 255 °C | CCCCc1nc2cc(Br)cc(C(=O)O)c2n1Cc1ccccc1Cl [Example 4, 5-Bromo-2-n-butyl-1-(2-chlorophenyl)methyl-1H-benzimidazole-7-carboxylic Acid] |
| 178 to 181 °C | CCCSc1ncc(C[C@H](NC(=O)CCC)C(=O)O)n1Cc1ccccc1Cl [Example 1, 3-[(2-Chlorophenyl)methyl]-2-propylthio-N-butyrylhistidine] |
| 118 to 120 °C | CCCCc1ncc(CC(Cc2ccccc2)C(=O)O)n1Cc1ccccc1Cl (stereo not drawn) (as salt: hydrochloride) [Example 2, 3-[2-n-Butyl-1-{(2-chlorophenyl)methyl}-1H-imidazol-5-yl]-2-benzylpropanoic Acid] |
